In patent US20220362254A1, “METHODS FOR REPROGRAMMING CANCER CELLS” (Thomas Jefferson University, priority 2019, published 2022):

Legend:
HL-60 cells = conditions: an APL cell line; cited from earlier work
EZH2 = EZH2 (Homo sapiens, UniProt Q15910); conditions: also inhibits other methyltransferases; cited from earlier work
H3K27me3 [1] = experiment: CAA: H3K27me3 on nascent chromatin of TCL cells (HUT78); format: cell-based, human
Method: FIG. 10B: HUT78 cells were induced with 0.2 μM of RXR for the indicated times. Cells were labeled with EdU for 15 min, and CAA was performed between Biotin (EdU) and H3K27me3 antibody. PLA only is shown in the lower panel.
FIGS. 15A-15C illustrate the effect of EPZ and small molecule ligand treatment on TF binding. […] Cells were immunostained with antibodies to LXRa (left), and GR (right). Nuclei stained by DAPI are shown in the lower panel. […] In FIG. 15C, T-ALL CCRF-HSB-2 cells were untreated or treated for 6 hr with 5 μM of ISX9, or pre-treated with 0.5 μM EPZ and then treated for 6 hr with 5 μM of ISX9. In FIG. 15B and FIG. 15C, DNA was labeled with EdU for 15 min. […]
Chromatin assembly assay: Cells were grown on chamber slides, pulse-labeled with 5 μM EdU and fixed at room temperature with 4% formaldehyde in PBS for 15 min, washed with PBS, and permeabilized with 0.3% Triton for 15 min. […] The results of CAA experiments shown in FIG. 1A were quantified by counting the number of PLA signals per EdU-labeled nuclei in 50 cells of each of the three independent experiments. The nature of the results in the rest of the figures alleviated the need to quantify the results of these assays.
New approaches to study the fate of chromatic-associated proteins following DNA replication were developed. […] Reliable pulse-chase EdU labeling in cells can be detected from 3-5 min to several hours. […]

H3K27me3 [2] = experiment: Chromatin assembly assay (CAA): H3K27me3 on nascent DNA of CD34+ HPCs; format: cell-based, human; conditions: CD34+ HPCs exposed to GSKJ4 during 12 hr induction; EdU 15 min, chased to 1 hr
Text: (§1) FIGS. 5A-5B illustrate that fast accumulation of post-replicative H3K27me3 leads to decreased recruitment of lineage-determining TFs to DNA. In FIG. 5A, CD34^+ cells were induced toward myeloid differentiation with G-CSF (left) or M-CSF (middle), or erythroid differentiation with EPO (right) for 12 hr. During the induction period cells were left untreated (upper panels) or treated with the GSKJ4 inhibitor of the H3K27me3 de-methylases (KDMs) UTX and JMJD3 (lower panels). DNA was pulse-labeled with EdU for 15 min and chased to 1 hr. CAA was performed between nascent DNA (biotin) and H3K27me3 (left columns) or (in the right columns) C/EBPa (left), PU.1 (middle) or GATA-1 (right). […] In FIG. 5B, quantification of the results of CAA experiments was determined by counting the number of PLA signals per EdU-labeled nuclei in 50 cells/each of the three independent experiments.
(§2) Chromatin assembly assay: Cells were grown on chamber slides, pulse-labeled with 5 μM EdU and fixed at room temperature with 4% formaldehyde in PBS for 15 min, washed with PBS, and permeabilized with 0.3% Triton for 15 min. […] The results of CAA experiments shown in FIG. 1A were quantified by counting the number of PLA signals per EdU-labeled nuclei in 50 cells of each of the three independent experiments. The nature of the results in the rest of the figures alleviated the need to quantify the results of these assays. […]

C/EBPa = experiment: CAA: recruitment of C/EBPa to nascent DNA in CD34+ HPCs; format: cell-based, human; conditions: CD34+ HPCs induced with G-CSF 12 hr
Text: as §1, §2

PU.1 = experiment: CAA: recruitment of PU.1 to nascent DNA in CD34+ HPCs; format: cell-based, human; conditions: CD34+ HPCs induced with M-CSF 12 hr
Text: as §1, §2

GATA-1 = experiment: CAA: recruitment of GATA-1 to nascent DNA in CD34+ HPCs; format: cell-based, human; conditions: CD34+ HPCs induced with EPO 12 hr
Text: as §1, §2

T-bet = experiment: CAA: recruitment of T-bet to nascent DNA in T cells (Th1); format: cell-based; conditions: Th1 pathway, 10 μM GSKJ4 for 5 hr
Method: (§3) FIG. 6 illustrates that fast accumulation of post-replicative H3K27me3 leads to decreased recruitment of lineage-determining TFs to DNA during differentiation of T cells. Naive T cells were primed for 12 hr and stimulated to Th1 (left, middle) or Th2 (right) pathways. Cells were untreated or treated with 10 μM of GSKJ4 for 5 hr, labeled with EdU for 15 min (left) or pulse-labeled for 1 hr (middle and right). CAA was performed with antibodies to H3K27me3 (left), T-bet (middle) and GATA3 (right).
(§4) Chromatin assembly assay: Cells were grown on chamber slides, pulse-labeled with 5 μM EdU and fixed at room temperature with 4% formaldehyde in PBS for 15 min, washed with PBS, and permeabilized with 0.3% Triton for 15 min. Cells were subjected to Click-iT reaction with biotin-azide for 30 min. […] The results of CAA experiments shown in FIG. 1A were quantified by counting the number of PLA signals per EdU-labeled nuclei in 50 cells of each of the three independent experiments. The nature of the results in the rest of the figures alleviated the need to quantify the results of these assays.
(§5) New approaches to study the fate of chromatic-associated proteins following DNA replication were developed. […] Cells can be then examined for specificity of interactions (e.g. specific PLA signals are detected only in EdU-labeled nuclei), and by assessing tissue specificity using relevant protein markers. […]

GATA3 = experiment: CAA: recruitment of GATA3 to nascent DNA in T cells (Th2); format: cell-based; conditions: Th2 pathway, 10 μM GSKJ4 for 5 hr
Method: as §3, §4, §5

LXRa [3] = experiment: Immunostaining of LXRa localisation in HUT78 cells; format: cell-based, human; conditions: 1 μM GW3965, untreated: mostly in the cytoplasm
Method: (§6) FIGS. 15A-15C illustrate the effect of EPZ and small molecule ligand treatment on TF binding. […] Cells were immunostained with antibodies to LXRa (left), and GR (right). Nuclei stained by DAPI are shown in the lower panel. […] In FIG. 15C, T-ALL CCRF-HSB-2 cells were untreated or treated for 6 hr with 5 μM of ISX9, or pre-treated with 0.5 μM EPZ and then treated for 6 hr with 5 μM of ISX9. In FIG. 15B and FIG. 15C, DNA was labeled with EdU for 15 min. In FIG. 15B, CAA was performed with antibodies to H3K27me3 (left), LXRa (middle), and GR (right). In FIG. 15C, with antibody to MEF-2. PLA signals are shown in the lower panel. The schemes above show the state of condensation of nascent chromatin.

LXRa [4] = experiment: CAA: binding of LXRa to nascent DNA in HUT78 cells; format: cell-based, human; conditions: 6 hr 1 μM GW3965, no EPZ
Method: as §6, §4

[5] = test system: HH, HUT78, Jurkat E6.1 and CCRF-HSB-2 cells; experiment: Cell viability screen of TCL cells (flow cytometry with Sytox Green); format: cell-based, human; conditions: HUT78, Jurkat E6.1, CCRF-HSB-2, with and without 1 μM EPZ 24 hrs, then 10 days
Method: (§7) Sezary syndrome (SS) cells HH (FIG. 12A) and HUT78 (FIG. 12B), and T-cell acute lymphoblastic leukemia (T-ALL) cells Jurkat E6.1 (FIG. 12C) and CCRF-HSB-2 (FIG. 12D) were grown with and without 1 μM EPZ for 24 hrs. Indicated small molecule compounds were added in indicated concentrations and cells were grown for an additional 10 days.
To test the idea that restoring the ability of cells to de-condense nascent chromatin may enable reprogramming of TCLs, a two-step induction was devised: Cells were first treated with the inhibitors of the EZH1/2 HMTs, and then induced with small molecule ligands known to activate specific TFs. […] A library of small molecules was compiled that included ligands for nuclear hormone receptors, cytokines, ligands for GPCRs, and small molecules that are used to reprogram mature cells into pluripotent cells (FIG. 11). Since different ligands may induce reprogramming of leukemic cells into different lineages, it was not possible to use specific differentiation markers at initial stages of these screens, and therefore cell viability was used as a readout for the initial screens. The earliest effects on cell viability were observed after 5 days of treatment, and therefore screens for cell viability (flow cytometry with Sytox green) were performed at days 8-11. […]

[6] = test system: AML cell lines THP-1, K562 and KG-1a; experiment: Cell viability of AML cell lines (flow cytometry with Sytox Green); format: cell-based, human; conditions: THP-1, K562, KG-1a; performed as in FIG. 12
Method: as §7
The assays were performed as described in FIG. 12.
Similar experiments were performed with the AML cell lines THP-1, K562 and KG-1a.

MEF2 = experiment: CAA: binding of MEF2 to nascent chromatin in CCRF-HSB-2 cells; format: cell-based, human; conditions: 5 μM ISX9 6 hr, with or without 0.5 μM EPZ pre-treatment
Method: as §6, §4

THP-1 Luc+ cells = experiment: THP-1 Luc+ xenograft AML model, bioluminescence; format: in vivo; conditions: NRG mice, THP-1 Luc+ 1×10^6/mouse; 30 days post injection
Text: NRG were mice injected with THP-1 Luc+ cells, an especially aggressive AML line (1×10^6/mouse). 14 days post-injection, mice were imaged and left untreated (Controls), treated with EPZ alone, Dexa alone and ISX9 alone for 16 days, or pre-treated (2 days) with EPZ and co-treated with Dexa and EPZ (Dexa+EPZ) or with ISX9 and EPZ (ISX9+EPZ) for 14 additional days.

all tested leukemias = experiment: In vitro assays with cultured leukemic cells of various leukemia types; format: cell-based; conditions: cell lines of various leukemia types
Method: Leukemic cells from patients can be established in short-term culture for about 10 days. During this time, these cells are screened for the best possible reprogramming agent, which causes reprogramming (e.g. differentiation), loss of cell viability and apoptosis. […] These assays include cell viability, apoptosis induction, and examining cell differentiation markers. Thus, within 7-10 days, the most efficient molecules are determined, which induce reprogramming of leukemic cells, which leads to inhibition of cell viability and induction of apoptosis in individual patients. Indeed, similar studies using a number of different cell lines of various leukemia types have seen differences in responses to various reprogramming agents (FIG. 14).

GR target genes = experiment: qRT-PCR of differentiation-associated (GR target) genes in THP-1, SEM and HH cells; format: cell-based, human; conditions: 24 hr
Method: Graphs show induction of transcription of GR target genes. […] Graphs show induction of transcription of GR target genes. FIG. 17C The T-ALL HH cells were untreated (Untr) or treated with 1 μM EPZ for 24 hr. […] Bottom graph, cells were then treated with 1 μM of ISX-9 for 72 hr or with combinations of EPZ and ISX9. Analysis by qRT-PCR.
Gene expression analysis by RT-qPCR: Total RNA was isolated directly from freshly collected hESCs with TRIzol and for mESCs with High Pure RNA Isolation Kit. cDNA was synthesized by using 1 μg total RNA in a 20 μL reaction with Superscript III and oligo (dT) for hESC or random hexamers (Life Tech) for mECS. After reverse transcription was complete, one microliter of RNase H was added to each reaction tube, and the tubes were incubated for 20 min at 37° C. before proceeding to PCR. Real-time PCR was carried out on a 7500 Real-Time PCR System using the 2× Power SYBR green PCR master mix. GAPDH was used as an internal control. All PCR products were checked by running an agarose gel for the first time and by doing dissociation assay every time to exclude the possibility of multiple products. PCR analyses were conducted in triplicate for each sample.
Graphs show induction of transcription of GR target genes. […] Graphs show induction of transcription of GR target genes. […]

Chain of EZH2 (Q15910 whole entry): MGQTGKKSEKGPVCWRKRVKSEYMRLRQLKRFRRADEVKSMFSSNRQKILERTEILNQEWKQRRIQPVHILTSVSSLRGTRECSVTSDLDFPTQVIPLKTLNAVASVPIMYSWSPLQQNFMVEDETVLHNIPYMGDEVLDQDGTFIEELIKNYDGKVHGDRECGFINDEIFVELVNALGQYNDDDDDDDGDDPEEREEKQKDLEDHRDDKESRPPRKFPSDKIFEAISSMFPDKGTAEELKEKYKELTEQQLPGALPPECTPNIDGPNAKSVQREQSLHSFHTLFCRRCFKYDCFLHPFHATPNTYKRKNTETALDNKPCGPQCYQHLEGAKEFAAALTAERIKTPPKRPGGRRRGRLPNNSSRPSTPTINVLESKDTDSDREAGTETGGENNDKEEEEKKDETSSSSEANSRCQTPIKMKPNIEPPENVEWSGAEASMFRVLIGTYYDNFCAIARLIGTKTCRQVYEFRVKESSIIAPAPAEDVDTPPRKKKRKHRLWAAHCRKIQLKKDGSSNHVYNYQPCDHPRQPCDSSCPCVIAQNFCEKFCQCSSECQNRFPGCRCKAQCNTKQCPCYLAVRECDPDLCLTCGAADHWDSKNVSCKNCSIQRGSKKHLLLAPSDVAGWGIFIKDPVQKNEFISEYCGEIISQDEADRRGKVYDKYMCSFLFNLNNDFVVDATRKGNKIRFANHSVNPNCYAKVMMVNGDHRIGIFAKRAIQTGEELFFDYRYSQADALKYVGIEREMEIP
Chain of EZH2 (O75530 whole entry partner): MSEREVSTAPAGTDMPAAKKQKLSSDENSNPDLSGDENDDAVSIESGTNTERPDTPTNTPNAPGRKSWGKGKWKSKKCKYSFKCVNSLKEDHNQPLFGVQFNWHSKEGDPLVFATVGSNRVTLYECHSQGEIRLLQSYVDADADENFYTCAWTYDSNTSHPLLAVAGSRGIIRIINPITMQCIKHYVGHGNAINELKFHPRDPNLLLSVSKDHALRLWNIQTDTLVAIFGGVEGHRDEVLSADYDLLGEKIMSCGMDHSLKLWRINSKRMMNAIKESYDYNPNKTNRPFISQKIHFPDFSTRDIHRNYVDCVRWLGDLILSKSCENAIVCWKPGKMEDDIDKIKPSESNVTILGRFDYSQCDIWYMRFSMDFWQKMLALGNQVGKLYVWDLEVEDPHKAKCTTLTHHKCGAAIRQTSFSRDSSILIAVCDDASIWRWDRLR
Chain of EZH2 (Q15022 whole entry partner): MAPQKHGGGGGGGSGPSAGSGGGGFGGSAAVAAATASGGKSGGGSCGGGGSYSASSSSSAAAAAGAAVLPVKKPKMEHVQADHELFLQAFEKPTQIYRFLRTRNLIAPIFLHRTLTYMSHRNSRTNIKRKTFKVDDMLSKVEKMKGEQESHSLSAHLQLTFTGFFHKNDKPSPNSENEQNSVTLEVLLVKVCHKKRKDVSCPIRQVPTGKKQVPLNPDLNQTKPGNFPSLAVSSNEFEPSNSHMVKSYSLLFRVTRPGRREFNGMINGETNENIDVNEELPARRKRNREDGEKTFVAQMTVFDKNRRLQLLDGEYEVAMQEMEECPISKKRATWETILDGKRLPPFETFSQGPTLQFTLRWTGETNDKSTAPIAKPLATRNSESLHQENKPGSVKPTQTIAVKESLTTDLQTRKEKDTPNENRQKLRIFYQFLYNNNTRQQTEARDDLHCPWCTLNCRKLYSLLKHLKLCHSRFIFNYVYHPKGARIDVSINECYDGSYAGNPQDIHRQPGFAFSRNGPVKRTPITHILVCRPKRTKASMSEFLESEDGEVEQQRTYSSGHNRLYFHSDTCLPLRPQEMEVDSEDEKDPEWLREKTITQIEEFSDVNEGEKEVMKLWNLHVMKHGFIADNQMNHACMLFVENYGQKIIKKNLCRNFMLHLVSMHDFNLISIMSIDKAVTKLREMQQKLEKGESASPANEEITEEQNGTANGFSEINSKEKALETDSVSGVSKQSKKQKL

## CC1=C(/C=C/C(C)=C/C=C/C(C)=C/C(=O)O)C(C)(C)CCC1 [ATRA, all-trans retinoic acid]
HL-60 cells
  terminal differentiation of cells: around 90%

## Nc1nccc2c1ncn2[C@@H]1C=C(CO)[C@@H](O)[C@H]1O [DZNep, 3-deazaneplanocin A]
EZH2
  specificity to EZH2: not specific to EZH2

## CC[C@H](C)n1cc(C)c2c(C(=O)NCc3c(C)cc(C)[nH]c3=O)cc(-c3ccc(N4CCNCC4)nc3)cc21 [GSK126]
H3K27me3 [1]; 24 hr, 0.5-1 μM range, tested by CAA
  levels of global and nascent chromatin marked with H3K27me3: marked decrease

## CCOC(=O)CCNc1cc(N2CCc3ccccc3CC2)nc(-c2ccccn2)n1 [GSKJ4]
H3K27me3 [2]
  accumulation of H3K27me3 following DNA replication: strongly increased
C/EBPa
  recruitment of the TF C/EBPa: strongly inhibited
PU.1
  recruitment of the TF PU.1: strongly inhibited
GATA-1
  recruitment of the TF GATA-1: strongly inhibited
T-bet
  recruitment of T-bet to nascent DNA: inhibition
GATA3
  recruitment of GATA3 to nascent DNA: inhibition

## O=C(O)Cc1cccc(OCCCN(Cc2cccc(C(F)(F)F)c2Cl)CC(c2ccccc2)c2ccccc2)c1 [GW3965]
LXRa [3]
  localisation of LXRa after induction with ligand: exclusively nuclear
LXRa [4]
  binding of LXRa to DNA, ligand alone: not able to bind to DNA

## O=C(NC1CC1)c1cc(-c2cccs2)on1 [ISX-9]
[5]
  inhibition of cell viability of TCL cells: effective
[6]
  inhibition of cell viability of AML cell lines: induced inhibition of cell viability in all AML cell lines
MEF2
  binding of activated MEF2 to nascent chromatin: occurs only following de-condensation of chromatin by EPZ
THP-1 Luc+ cells
  THP-1 cell growth / outgrowth (bioluminescence fold-changes) vs untreated control animals: little effect
All tested leukemias
  efficiency as reprogramming agent across leukemias: efficient in all tested leukemias

## C[C@]12C=CC(=O)C=C1CC[C@@H]1[C@@H]2C(=O)C[C@@]2(C)[C@H]1CC[C@]2(O)C(=O)CO [Prednisone]
H3K27me3 [1]; HUT78 cells, 0.2 μM, through 10 hr of induction
  level of H3K27me3 on 15 min-labeled nascent DNA: remained unchanged
GR target genes
  expression of differentiation-associated genes vs untreated cells: no statistical difference

## arsenic trioxide [ATO]
HL-60 cells
  terminal differentiation of cells: around 90%
